Source: patent publication US10682319B2, “Necrosis inhibitors” (National Institute of Biological Sciences, Beijing, priority 2014, dated 2020)

Each compound was assayed on HT-29 cells (assay: Necrosis assay (TNF-α/Smac mimetic/z-VAD induced necrosis, cell viability by ATP level)). Details: HT-29, TNF-α + Smac mimetic + z-VAD, 24 hrs, ATP level; values given as ranges in nM; read-out: EC50 (inhibition of necrosis in HT-29 cells).
Format: cell-based
Method: HT-29 cells were cultured in McCoy's 5 A culture medium (Invitrogen). On day one, HT-29 cells were plated in 96-well assay plates at density of 2,500-3,500 cells per well. On day two, necrosis were induced by adding 20 ng/ml TNF-α (T), 100 nM Smac mimetic (S), and […] z-VAD (Z). At the same time, […] compound from a chemical library of ˜200,000 compounds was delivered into each well. After 24 hrs treatment, cell viability was determined by measuring ATP level using the CellTiter-Glo Luminescent Cell Viability Assay kit. A CellTiter-Glo Assay (Promega) was performed according to the manufacturer's instructions Luminescence was recorded with a PerkinElmer EnSpire Multimode Plate Reader. Survived cells were normalized to those cells treated with DMSO. Nec-1 was used as a positive control for screening necrosis inhibitors. Data are represented as mean±standard deviation of duplicates
Dose-dependent inhibition of necrosis by the compounds in HT-29 cells were determined by measuring ATP levels as described above.

Row | Compound | EC50
1 | CCC(C)(C)C(=O)N(C)Cc1cccs1 [Compound 40, N,2,2-trimethyl-N-(thiophen-2-ylmethyl)butanamide] | 1 to 1000 nM
2 | CCC(C)(C)C(=O)N(C)Cc1ccc(OC)cc1F [Compound 28, N-(2-fluoro-4-methoxybenzyl)-N,2,2-trimethylbutanamide] | 1 to 1000 nM
3 | CCC(C)(C)C(=O)NCc1ccccc1 [Compound 58, N-benzyl-2,2-dimethylbutanamide] | 1 to 1000 nM
4 | CCC(C)(C)C(=O)N(O)Cc1ccc(F)c(F)c1 [Compound 95, N-(3,4-difluorobenzyl)-N-hydroxy-2,2-dimethylbutanamide] | 1 to 1000 nM
5 | CC1CCCC(C)N1C(=O)N(C)Cc1cc(F)cc(F)c1F (stereo not shown) [Compound 121, N,2,6-trimethyl-N-(2,3,5-trifluorobenzyl)piperidine-1-carboxamide] | 1 to 1000 nM
6 | CCC(C)(C)C(=O)N(C)Cc1ccco1 [Compound 43, N-(furan-2-ylmethyl)-N,2,2-trimethylbutanamide] | 1 to 1000 nM
7 | CCC(C)(C)C(=O)NCc1cc(F)cc(F)c1F [Compound 70, 2,2-dimethyl-N-(2,3,5-trifluorobenzyl)butanamide] | 1 to 1000 nM
8 | CCC(C)(C)C(=O)N(O)Cc1cc(F)c(F)cc1F [Compound 98, N-hydroxy-2,2-dimethyl-N-(2,4,5-trifluorobenzyl)butanamide] | 1 to 1000 nM
9 | CCC(C)(C)C(=O)N(C)Cc1ccc(C)s1 [Compound 42, N,2,2-trimethyl-N-((5-methylthiophen-2-yl)methyl)butanamide] | 1 to 1000 nM
10 | CCC(C)(C)C(=O)N(Cc1ccccc1)OC(C)=O [Compound S3, N-acetoxy-N-benzyl-2,2-dimethylbutanamide] | 1 to 1000 nM
11 | CCC(C)(C)C(=O)N(C)Cc1cc(F)ccc1F [Compound 25, N-(2,5-difluorobenzyl)-N,2,2-trimethylbutanamide] | 1 to 1000 nM

Same assay, conditions: Homo sapiens, HT-29, 24 h, HT-29, TNF-α + Smac mimetic + z-VAD, 24 hrs, ATP level; values given as ranges in uM; read-out: EC50 (inhibition of necrosis in HT-29 cells)

Row | Compound | EC50
12 | CC(C)NC(=O)N(C)Cc1ccccc1F [Compound 114, 1-(2-fluorobenzyl)-3-isopropyl-1-methylurea] | 1000 to 100000 nM
13 | CCC(C)(C)C(=O)N(O)CC1=CCCC1 [Compound 140] | 1000 to 100000 nM
14 | CCN(Cc1cc(F)cc(F)c1F)C(=O)C1CCCCC1 [Compound 74, N-ethyl-N-(2,3,5-trifluorobenzyl)cyclohexanecarboxamide] | 1000 to 100000 nM
15 | CCC(C)(C)C(=O)N(C)Cc1cc(C)cc(C)c1 [Compound 32, N-(3,5-dimethylbenzyl)-N,2,2-trimethylbutanamide] | 1000 to 100000 nM
16 | CC(F)(F)C(C)(C)C(=O)N(O)Cc1cc(F)cc(F)c1F [Compound S14] | 1000 to 100000 nM
17 | CC(C)N(C)C(=O)N(C)Cc1cc(F)cc(F)c1F [Compound 120, isopropyl-1,3-dimethyl-3-(2,3,5-trifluorobenzyl)urea] | 1000 to 10000 nM
18 | CCC(C)(C)C(=O)N[C@@H](CC(=O)NCc1ccccc1)c1ccccc1 [Compound 107, (S)—N-(3-(benzylamino)-3-oxo-1-phenylpropyl)-2,2-dimethylbutanamide] | 1000 to 100000 nM
19 | CN(Cc1cc(F)cc(F)c1F)C(=O)C1(C)CC1 [Compound 80, N,1-dimethyl-N-(2,3,5-trifluorobenzyl)cyclopropanecarboxamide] | 1000 to 100000 nM
20 | CC(F)(F)C(C)(C)C(=O)N(O)Cc1ccc(F)cc1 [Compound S9] | 1000 to 100000 nM
21 | CN(Cc1cc(F)c(F)c(F)c1)C(=O)C(C)(C)C [Compound 69, N-methyl-N-(3,4,5-trifluorobenzyl)pivalamide] | 1000 to 10000 nM
22 | CN(Cc1cc(F)cc(F)c1F)C(=O)C1(c2ccccc2)CCCC1 [Compound 87, N-methyl-1-phenyl-N-(2,3,5-trifluorobenzyl)cyclopentanecarboxamide] | 1000 to 100000 nM
23 | CC(F)(F)C(C)(C)C(=O)N(O)Cc1ccc(F)c(F)c1 [Compound S11] | 1000 to 100000 nM
24 | CCC(C)(C)C(=O)N[C@@H](CC(=O)N1CCCCC1)c1ccccc1 [Compound 105, (S)-2,2-dimethyl-N-(3-oxo-1-phenyl-3-(piperidin-1-yl)propyl)butanamide] | 1000 to 100000 nM
25 | CCC(C)(C)C(=O)N(C)Cc1cccc(C(=O)OC)c1 [Compound 23, methyl 3-((N,2,2-trimethylbutanamido)methyl)benzoate] | 1000 to 100000 nM
26 | CC(C)(C)C(=O)NCc1cc(F)cc(F)c1F [Compound S1, N-(2,3,5-trifluorobenzyl)pivalamide] | 1000 to 10000 nM
27 | CCC(C)(C)C(=O)N(C)Cc1c(F)cc(F)cc1F [Compound 48, N,2,2-trimethyl-N-(2,4,6-trifluorobenzyl)butanamide] | 1000 to 10000 nM
28 | CCC(C)(C)C(=O)N(C)C(COC)c1ccccc1 (stereo not shown) [Compound 112, N-(2-methoxy-1-phenylethyl)-N,2,2-trimethylbutanamide] | 1000 to 100000 nM
29 | CCC(C)(C)C(=O)NC(CO)c1ccccc1 (stereo not shown) [Compound 110, N-(2-hydroxy-1-phenylethyl)-2,2-dimethylbutanamide] | 1000 to 100000 nM
30 | CCC(C)(C)C(=O)N(CCC(C)=O)Cc1ccccc1F [Compound 12, N-(2-fluorobenzyl)-2,2-dimethyl-N-(3-oxobutyl)butanamide] | 1000 to 10000 nM
31 | CCC(C)(C)C(=O)N(O)Cc1cccs1 [Compound 136] | 1000 to 100000 nM
32 | CCC(C)(C)C(=O)N[C@@H](CC(=O)Nc1ccccc1)c1ccccc1 [Compound 106, (S)-2,2-dimethyl-N-(3-oxo-1-phenyl-3-(phenylamino)propyl)butanamide] | 1000 to 100000 nM
33 | COCC(C)(C)C(=O)N(C)Cc1cc(F)c(F)c(F)c1 [Compound 71, 3-methoxy-N,2,2-trimethyl-N-(3,4,5-trifluorobenzyl)propanamide] | 1000 to 100000 nM
34 | C#CCN(Cc1ccccc1F)C(=O)C(C)(C)CC [Compound 11, N-(2-fluorobenzyl)-2,2-dimethyl-N-(prop-2-yn-1-yl)butanamide] | 1000 to 10000 nM
35 | CCC(C)(CC)C(=O)NCc1cc(F)cc(F)c1F [Compound 73, 2-ethyl-2-methyl-N-(2,3,5-trifluorobenzyl)butanamide] | 1000 to 10000 nM

Row | Compound | EC50
36 | COC(C)(C)C(=O)N(C)Cc1cc(F)cc(F)c1F [Compound 67, 2-methoxy-N,2-dimethyl-N-(2,3,5-trifluorobenzyl)propanamide] | 1000 to 10000 nM
37 | CCC(C)(C)C(=O)N(O)Cc1cccn1C [Compound 143] | 1000 to 100000 nM
38 | CCC(C)(C)C(=O)N[C@@H](C(=O)N(C)C)c1ccccc1 [Compound 123, (R)—N-(2-(dimethylamino)-2-oxo-1-phenylethyl)-2,2-dimethylbutanamide] | 1000 to 100000 nM
39 | CCC(C)(C)C(=O)N[C@@H](CC(=O)NC)c1ccccc1 [Compound 101, (S)-2,2-dimethyl-N-(3-(methylamino)-3-oxo-1-phenylpropyl)butanamide] | 1000 to 100000 nM
40 | CCC1(C(=O)N(C)Cc2cc(F)c(F)c(F)c2)CCC1 [Compound 88, 1-ethyl-N-methyl-N-(3,4,5-trifluorobenzyl)cyclobutanecarboxamide] | 1000 to 100000 nM
41 | CCC(C)(C)C(=O)N(O)Cc1sc(C)cc1C [Compound 138] | 1000 to 100000 nM
42 | CCC(C)(C)C(=O)N(C)Cc1c(F)c(F)cc(F)c1F [Compound 51, N,2,2-trimethyl-N-(2,3,5,6-tetrafluorobenzyl)butanamide] | 1000 to 10000 nM
43 | CCC(C)(C)C(=O)NC1(c2ccccc2)CC1 [Compound 54, 2,2-dimethyl-N-(1-phenylcyclopropyl)butanamide] | 1000 to 100000 nM
44 | CCC(C)(C)C(=O)NCc1ccccc1Br [Compound 3, N-(2-bromobenzyl)-2,2-dimethylbutanamide] | 1000 to 10000 nM
45 | CCC(C)(C)C(=O)N(C)[C@@H](CO)c1cc(F)cc(F)c1F [Compound 149] | 1000 to 100000 nM
46 | CN(Cc1cc(F)cc(F)c1F)S(=O)(=O)C1CCCCC1 [Compound 79, N-methyl-N-(2,3,5-trifluorobenzyl)cyclohexanesulfonamide] | 1000 to 100000 nM
47 | CC(C)(C)C(=O)NCc1ccccc1 [Compound 2, N-benzylpivalamide] | 1000 to 10000 nM
48 | CCC(C)(C)C(=O)N(O)C(CO)c1ccccc1 (stereo not shown) [Compound 150] | 1000 to 100000 nM
49 | CN(Cc1ccccc1F)C(=O)C1CC1 [Compound 62, N-(2-fluorobenzyl)-N-methylcyclopropanecarboxamide] | 1000 to 100000 nM
50 | CON(Cc1cc(F)c(F)cc1F)C(=O)C(C)(C)C(C)(F)F [Compound S18] | 1000 to 100000 nM
51 | CCC(C)(C)C(=O)N(Cc1ccccc1)OC [Compound 151] | 1000 to 100000 nM
52 | CCC(C)(C)C(=O)N(C)Cc1ccncc1F [Compound 36, N-((3-fluoropyridin-4-yl)methyl)-N,2,2-trimethylbutanamide] | 1000 to 100000 nM
53 | CON(Cc1cc(F)c(F)c(F)c1)C(=O)C(C)(C)C(C)(F)F [Compound S19] | 1000 to 100000 nM
54 | CCC(C)(C)C(=O)N(C)Cc1cnc(C)s1 [Compound 44, N,2,2-trimethyl-N-((2-methylthiazol-5-yl)methyl)butanamide] | 1000 to 10000 nM
55 | CN(Cc1ccccc1F)C(=O)C1CCCCC1 [Compound 60, N-(2-fluorobenzyl)-N-methylcyclohexanecarboxamide] | 1000 to 10000 nM
56 | CCC(C)(CC)C(=O)N(C)Cc1cc(F)c(F)c(F)c1 [Compound 72, 2-ethyl-N,2-dimethyl-N-(3,4,5-trifluorobenzyl)butanamide] | 1000 to 10000 nM
57 | CCC(C)(C)C(=O)N(Cc1cc(F)cc(F)c1F)OC [Compound 135] | 1000 to 100000 nM
58 | CN(Cc1cc(F)cc(F)c1F)C(=O)C1(c2ccccc2)CC1 [Compound 82, N-methyl-1-phenyl-N-(2,3,5-trifluorobenzyl)cyclopropanecarboxamide] | 1000 to 100000 nM
